# Data from publication PMC8921064 (Archives of Toxicology, 2022).
# Assays:
# [1] = test system: human liver microsomes (HLM); test: Human liver microsomal incubation, metabolite formation quantified by UPLC; conditions: HLM
# Experimental: (§1) The incubation mixtures were prepared and incubated in glass vials to avoid plastic binding of the substrates. The glass vials were capped to prevent substrate loss due to volatility. After preincubation of the incubation mixture at 37 °C for 1 min, the enzymatic reaction was initiated by adding microsomes to the incubation mixture which was subsequently incubated at 37 °C for 20 min. The reaction was terminated by adding 100 µl ice-cold acetonitrile followed by vortexing. After 5 min centrifugation at 5000 rpm (4000 × g), 4 °C, the supernatant was collected for ultraperformance liquid chromatography (UPLC) analysis. […] Therefore, a diisopropylether (DIPE) extraction of the metabolites was performed after the reaction was stopped by the addition of 20 µl 10% HClO4. To this end, the incubation mixture (total volume of 220 µl) was extracted three times with 1 ml DIPE. Each time, the upper organic layer was collected and the DIPE was subsequently evaporated from the combined organic fractions with a gentle stream of nitrogen. The residues were dissolved in 100 µl methanol and analyzed by UPLC.
# (§2) The metabolites formed were analyzed and quantified using an Acquity UPLC system equipped with a photodiode array (PDA) detector (Waters, Milford, MA). The metabolites and their parent compound were separated on a reverse phase Acquity UPLC® BEH C18 column ([…], 1.7 µm, Waters, Milford, MA) and detected at wavelengths ranging from 190 to 400 nm. Eluent A was nano-pure water containing 0.1% trifluoroacetic acid (v/v), and eluent B was acetonitrile containing 0.1% trifluoroacetic acid (v/v). The gradient elution started from 90% A and 10% B applied from 0.0 min to 0.5 min, which was changed to 0% A and 100% B from 0.5 to 15.5 min and then kept at 0% A and 100% B from 15.5 min to 18.5 min, changed back to 90% A and 10% B from 18.5 to 18.6 min and then maintained at the starting conditions from 18.6 min until 22 min. The total run time was 22 min using a flow rate of 0.6 ml/min. The temperature of the column was set at 40 °C and that of the autosampler at 10 °C during the UPLC analysis. The injection volume was 3.5 µl. Metabolites were quantified using their peak area at the wavelength specified in Table 1, using calibration curves of available reference compounds. Metabolites were identified by comparing their retention time (RT) and UV spectrum to those of reference chemicals on UPLC. When reference chemicals were not available, metabolite identification by gas chromatography-triple quadrupole mass spectrometry (GC–MS/MS) was performed. The minor metabolites were identified by elution time and mass spectra both on UPLC and GC–MS/MS, and by comparison with available elution and spectral information from the literature.
# (§3) The metabolite concentrations in the microsomal incubation mixtures as quantified by UPLC were used to calculate the rate of the enzymatic conversions in pmol/min/mg microsomal protein. The kinetic parameters KM and Vmax were obtained using a nonlinear regression curve fit applying the Michaelis Menten equation in GraphPad Prism 5 (San Diego, USA). To compare the catalytic efficiency of formation of the different metabolites the intrinsic clearance (Clint) was calculated as Vmax divided by KM.
# [2] = test system: rat liver microsomes (RLM); test: Rat liver microsomal incubation, metabolite formation quantified by UPLC; conditions: RLM
# Experimental: as §1, §2, §3
# [3] = test system: Salmonella typhimurium TA98; test: Reverse mutation assay (Ames test), TA98; conditions: for His + revertant colonies TA98 without S9-mix: mean ± SD of 3 plates; for Increase in the number of revertants compared to the concurrent solvent control: TA98, presence of 5% S9-mix, 10–100 µg; for Mutagenicity (conclusion): TA98, positive if more than threefold over control
# Experimental: Six concentrations of each compound were tested in triplicate in the absence and presence of 5% (v/v) S9-mix prepared from the livers of Aroclor 1254 treated Sprague–Dawley rats. The S9-mix contained 4 mM NADP, 5.8 mM glucose-6-phosphate, 0.1 M sodium phosphate pH 7.4, 8 mM MgCl2, 33 mM KCl and 5% S9 homogenate. Fresh bacterial cultures were prepared overnight to reach 10^9 cells/ml. The following solutions were pre-incubated in a rotating incubator at 70 rpm and 37 °C, and contained either 0.5 ml S9-mix (in case of S9 presence) or 0.5 ml 0.1 M potassium phosphate pH 7.4 (in case of S9 absence), 0.1 ml of a fresh bacterial culture (10^9 cells/ml) of TA98 or TA100, […] Top agar was melted and heated to 45 °C. After preincubation, the substrate solutions were added to 3 ml of the molten top agar and mixed by vortexing and the top agar mixture was poured onto a minimal glucose agar plate. After solidification of the top agar, the plates were incubated at 37 °C for 48 h. The number of revertant colonies per plate was automatically counted with the Instem Sorcerer Colony Counter (Staffordshire, UK). In the absence of S9-mix, 2-nitrofluorene (NF) and methylmethanesulfonate (MMS) were tested as positive controls for incubations with TA98 and TA100, respectively. In the presence of S9-mix, 2-aminoanthracene (2AA) was tested as a positive control in both TA98 and TA100. DMSO was tested as a solvent control in both tester strains.
# [4] = test system: Salmonella typhimurium TA100; test: Reverse mutation assay (Ames test), TA100; conditions: for His + revertant colonies TA100 without S9-mix: mean ± SD of 3 plates; for Cytotoxicity at the test doses: TA100, absence of S9 mix; for Increase in the number of revertants compared to the concurrent solvent control: TA100, presence of 5% S9-mix, 10–100 µg; for Mutagenicity (conclusion): TA100, positive if more than twofold over control
# Experimental: Six concentrations of each compound were tested in triplicate in the absence and presence of 5% (v/v) S9-mix prepared from the livers of Aroclor 1254 treated Sprague–Dawley rats. The S9-mix contained 4 mM NADP, 5.8 mM glucose-6-phosphate, 0.1 M sodium phosphate pH 7.4, 8 mM MgCl2, 33 mM KCl and 5% S9 homogenate. Fresh bacterial cultures were prepared overnight to reach 10^9 cells/ml. The following solutions were pre-incubated in a rotating incubator at 70 rpm and 37 °C, and contained either 0.5 ml S9-mix (in case of S9 presence) or 0.5 ml 0.1 M potassium phosphate pH 7.4 (in case of S9 absence), 0.1 ml of a fresh bacterial culture (10^9 cells/ml) of TA98 or TA100, and 10–100 µg test compound. Top agar was melted and heated to 45 °C. After preincubation, the substrate solutions were added to 3 ml of the molten top agar and mixed by vortexing and the top agar mixture was poured onto a minimal glucose agar plate. After solidification of the top agar, the plates were incubated at 37 °C for 48 h. The number of revertant colonies per plate was automatically counted with the Instem Sorcerer Colony Counter (Staffordshire, UK). In the absence of S9-mix, 2-nitrofluorene (NF) and methylmethanesulfonate (MMS) were tested as positive controls for incubations with TA98 and TA100, respectively. In the presence of S9-mix, 2-aminoanthracene (2AA) was tested as a positive control in both TA98 and TA100. DMSO was tested as a solvent control in both tester strains.
# mouse skin = test system: mouse skin; design: method as in Buening et al. [1979]; LaVoie et al. [1981]; conditions: mouse skin painting; ref Buening et al. [1979]; LaVoie et al. [1981]; cited from earlier work
# S. typhimurium TA98 = conditions: ref LaVoie et al. [1983]; cited from earlier work
# S. typhimurium TA100 = conditions: ref LaVoie et al. [1983]; cited from earlier work
structure (smiles),measurement,setting,value
Cc1ccc2ccc3ccccc3c2c1 [3-Methylphenanthrene],"Vmax, formation of 3-(Hydroxymethyl)-phenanthrene RT = 5.62 min",[1]; substrate 3-Methylphenanthrene,583.8 ± 19.6 pmol/min/mg microsomal protein
same,"Vmax, formation of Dihydro-3-methylphenanthrene-diol RT = 4.25 min",[1]; substrate 3-Methylphenanthrene,65.0 ± 4.1 pmol/min/mg microsomal protein
same,"Vmax, formation of Dihydro-3-methylphenanthrene-diol RT = 4.42 min",[1]; substrate 3-Methylphenanthrene,12.8 ± 0.8 pmol/min/mg microsomal protein
same,"Vmax, formation of 3-(Hydroxymethyl)-phenanthrene RT = 5.62 min",[2]; substrate 3-Methylphenanthrene,2593 ± 305 pmol/min/mg microsomal protein
same,"Vmax, formation of 3-Methylphennathrol RT = 6.98 min",[2]; substrate 3-Methylphenanthrene,82.6 ± 53.8 pmol/min/mg microsomal protein
same,"Vmax, formation of Dihydro-3-methylphenanthrene-diol RT = 4.25 min",[2]; substrate 3-Methylphenanthrene,92.3 ± 25.1 pmol/min/mg microsomal protein
same,"Vmax, formation of Dihydro-3-methylphenanthrene-diol RT = 4.42 min",[2]; substrate 3-Methylphenanthrene,20.4 ± 1.7 pmol/min/mg microsomal protein
same,His + revertant colonies TA98 without S9-mix,[3]; 2 µg/plate,16±3
same,His + revertant colonies TA98 without S9-mix,[3]; 4 µg/plate,17±4
same,His + revertant colonies TA98 without S9-mix,[3]; 10 µg/plate,14±1
same,His + revertant colonies TA98 without S9-mix,[3]; 20 µg/plate,13±2
same,His + revertant colonies TA98 without S9-mix,[3]; 40 µg/plate,9±4
same,Cytotoxicity at the test doses,"[3]; TA98, absence of S9 mix",showed cytotoxicity
same,Increase in the number of revertants compared to the concurrent solvent control,[3],2.2 fold
same,Mutagenicity (conclusion),[3],non-mutagenic
same,Bacterial background lawn,"[3]; TA98 without S9-mix, 40 µg/plate",S
same,His + revertant colonies TA100 without S9-mix,[4]; 2 µg/plate,112±14
same,His + revertant colonies TA100 without S9-mix,[4]; 4 µg/plate,112±9
same,His + revertant colonies TA100 without S9-mix,[4]; 10 µg/plate,119±11
same,His + revertant colonies TA100 without S9-mix,[4]; 20 µg/plate,83±34
same,His + revertant colonies TA100 without S9-mix,[4]; 40 µg/plate,75±4
same,Cytotoxicity at the test doses,[4],showed cytotoxicity
same,Increase in the number of revertants compared to the concurrent solvent control,[4],no increased response was found
same,Mutagenicity (conclusion),[4],non-mutagenic
same,Tumor-initiating activity,mouse skin,neither phenanthrene nor its monomethylated analogs
Cc1cc2ccccc2c2ccccc12 [9-Methylphenanthrene],"Vmax, formation of 1,2-Dihydro-9-methylphenanthrene-diol RT = 4.27 min",[1]; substrate 9-Methylphenanthrene,15.6 ± 2.4 pmol/min/mg microsomal protein
same,"Vmax, formation of 3,4-Dihydro-9-methylphenanthrene-diol RT = 2.98 min",[1]; substrate 9-Methylphenanthrene,26.1 ± 3.0 pmol/min/mg microsomal protein
same,"Vmax, formation of 9-(Hydroxymethyl)-phenanthrene RT = 5.6 min",[1]; substrate 9-Methylphenanthrene,415.9 ± 43.9 pmol/min/mg microsomal protein
same,"Vmax, formation of 9-Methylphenanthrol RT = 6.28 min",[1]; substrate 9-Methylphenanthrene,27.8 ± 6.7 pmol/min/mg microsomal protein
same,"Vmax, formation of 9-Methylphenanthrol RT = 6.73 min",[1]; substrate 9-Methylphenanthrene,44.9 ± 19.4 pmol/min/mg microsomal protein
same,"Vmax, formation of 9-(Hydroxymethyl)-phenanthrene RT = 5.6 min",[2]; substrate 9-Methylphenanthrene,1543 ± 226.6 pmol/min/mg microsomal protein
same,"Vmax, formation of 9-Methylphenanthrol RT = 6.73 min",[2]; substrate 9-Methylphenanthrene,27.2 ± 5.1 pmol/min/mg microsomal protein
same,"Vmax, formation of 9-Methylphenanthrol RT = 6.87 min",[2]; substrate 9-Methylphenanthrene,124.2 ± 29.2 pmol/min/mg microsomal protein
same,"Vmax, formation of 9-Methylphenanthrol RT = 7.2 min",[2]; substrate 9-Methylphenanthrene,41.4 ± 23.4 pmol/min/mg microsomal protein
same,"Vmax, formation of 9-Methylphenanthrol RT = 7.25 min",[2]; substrate 9-Methylphenanthrene,10.2 ± 1.9 pmol/min/mg microsomal protein
same,Increase in the number of revertants compared to the concurrent solvent control,[3],2.5 fold
same,Increase in the number of revertants relative to the historical control data,"[3]; TA98, presence of S9-mix",3.2 fold
same,Mutagenicity (conclusion),[3],indicative of mutagenicity
same,His + revertant colonies TA100 without S9-mix,[4]; 2 µg/plate,121±7
same,His + revertant colonies TA100 without S9-mix,[4]; 4 µg/plate,109±3
same,His + revertant colonies TA100 without S9-mix,[4]; 10 µg/plate,105±11
same,His + revertant colonies TA100 without S9-mix,[4]; 20 µg/plate,97±20
same,His + revertant colonies TA100 without S9-mix,[4]; 40 µg/plate,59±40
same,Cytotoxicity at the test doses,[4],showed cytotoxicity
same,Increase in the number of revertants compared to the concurrent solvent control,[4],1.9 fold
same,Increase in the number of revertants relative to the historical control data,"[4]; TA100, presence of S9-mix",2.0 fold
same,Mutagenicity (conclusion),[4],indicative of mutagenicity
same,Tumor-initiating activity,mouse skin,neither phenanthrene nor its monomethylated analogs
same,Increase in revertants,S. typhimurium TA98,1.3 fold
same,Increase in revertants,S. typhimurium TA100,3.0 fold
Cc1ccc2c(ccc3ccccc32)c1 [2-Methylphenanthrene],"Vmax, formation of 2-(Hydroxymethyl)-phennathrene RT = 5.59 min",[1]; substrate 2-Methylphenanthrene,562.0 ± 27.5 pmol/min/mg microsomal protein
same,"Vmax, formation of 2-Methylphenanthrol RT = 6.12 min",[1]; substrate 2-Methylphenanthrene,16.3 ± 0.8 pmol/min/mg microsomal protein
same,"Vmax, formation of Dihydro-2-methylphenanthrene-diol RT = 3.09 min",[1]; substrate 2-Methylphenanthrene,6.4 ± 0.5 pmol/min/mg microsomal protein
same,"Vmax, formation of 2-(Hydroxymethyl)-phennathrene RT = 5.59 min",[2]; substrate 2-Methylphenanthrene,2174 ± 115.3 pmol/min/mg microsomal protein
same,"Vmax, formation of 2-Methylphenanthrol RT = 6.98 min",[2]; substrate 2-Methylphenanthrene,76.0 ± 3.1 pmol/min/mg microsomal protein
same,"Vmax, formation of 2-Methylphenanthrol RT = 7.08 min",[2]; substrate 2-Methylphenanthrene,11.2 ± 0.9 pmol/min/mg microsomal protein
same,"Vmax, formation of Dihydro-2-methylphenanthrene-diol RT = 4.26 min",[2]; substrate 2-Methylphenanthrene,23.1 ± 2.7 pmol/min/mg microsomal protein
same,"Vmax, formation of Dihydro-2-methylphenanthrene-diol RT = 4.42 min",[2]; substrate 2-Methylphenanthrene,16.2 ± 2.5 pmol/min/mg microsomal protein
same,"Vmax, formation of 2-Methylphenanthrol RT = 6.12 min","[2]; substrate 2-Methylphenanthrene, KM NA",90.7 ± 3.8 pmol/min/mg microsomal protein
same,Increase in the number of revertants compared to the concurrent solvent control,[3],2.2 fold
same,Mutagenicity (conclusion),[3],non-mutagenic
same,His + revertant colonies TA100 without S9-mix,[4]; 10 µg/plate,106±20
same,His + revertant colonies TA100 without S9-mix,[4]; 20 µg/plate,98±13
same,His + revertant colonies TA100 without S9-mix,[4]; 40 µg/plate,70±8
same,Cytotoxicity at the test doses,[4],showed cytotoxicity
same,Increase in the number of revertants compared to the concurrent solvent control,[4],no increased response was found
same,Mutagenicity (conclusion),[4],non-mutagenic
same,Tumor-initiating activity,mouse skin,neither phenanthrene nor its monomethylated analogs
